# Data reported in patent US20090048173A1, “Use Of Dipyridamole For Treatment Of Resistance To Platelet Inhibitors” (priority 2004, published 2009).
# “Also recorded” adds a separate entry of the source.
# Legend:
# platelet aggregability = settings: aspirin resistant or aspirin semiresponders; literature 2001-2004; cited from earlier work
# platelets = assay: Platelet aggregation, conventional aggregometry, in blood of aspirin/clopidogrel resistant stroke/TIA patients pretreated in vitro with dipyridamole; type: cell-based, human; settings: for Platelet aggregation 5 μM ADP: baseline 65.5 ± 6.3; for Platelet aggregation Collagen 1 μM / Platelet aggregation Arachidonic Acid 0.75 μM: non-responder blood, 45 min; for Platelet aggregation Collagen 1 μM: baseline 65.9 ± 8.9; for Platelet aggregation Arachidonic Acid 0.75 μM: baseline 72.5 ± 9.5
# Experimental: (§1) Aspirin/clopidogrel resistance is defined by lack of platelet inhibition after one month of mono- or combination therapy. Lack of platelet inhibition is defined when 4 out of the following 5 parameters are met: ADP-induced platelet aggregation remains >60%; collagen-induced aggregation >70%; whole blood aggregation >18 ohms; expression of GP IIb/IIIa >220 log MFI; and P-selectin cell positivity >8%.
# (§2) Experiments are done (blood is incubated) with dipyridamole 2 μM/L and 4 μM/L.
# (§3) Twenty ml of blood were collected from each participant, divided into 3 parts, and 2 parts were incubated for 45 min with 2 μM/L and 4 μM/L of Dipyridamole. This concentration corresponds to the physiological Dipyridamole concentration in plasma achieved 0.8-12 hours after oral administration of Aggrenox (25 mg of aspirin+200 mg of Dipyridamole). The third portion was incubated with the vehicle and served as internal control.
# (§4) Patients on other antithrombotic agents including COX inhibitors, and NSAID were excluded. Blood samples were pretreated with dipyridamole (2 mkg/ml, 4 mkg/ml), simulating the therapeutic range, and then incubated for 45 minutes at 37° C. Platelets were assessed by conventional (1 μM collagen, 0.75 μM arachidonic acid, and 5 μM ADP), and whole blood (1 mg/ml collagen) aggregometry; the expression of GP IIb/IIIa, P-selectin, annexin V binding, intact (SPAN12), and cleaved (WEDE15) PAR-1 thrombin receptors by flow cytometry. Markers of TR (D-Dimer, Thrombin-Antithrombin-III Complexes, and Prothrombin Fragment F1+2) were measured in the autologous plasma samples by ELISA.
# GP IIb/IIIa = assay: Flow cytometry: platelet expression of CD41a (GP IIb/IIIa); type: cell-based, human; settings: for Flow-cytometry CD41a (GP IIb), MFI: non-responder blood, 45 min, baseline 429.0 ± 52.1
# Experimental: as §1, §2, §3, §4
# P-selectin = assay: Flow cytometry: platelet expression of CD62p (P-selectin); type: cell-based, human; settings: non-responder blood, 45 min, baseline 10.0 ± 1.8
# Experimental: as §1, §2
# as §3, with “The third portion was incubated with the vehicle and served as internal control.” left out
# as §4, with “Blood samples were pretreated with dipyridamole (2 mkg/ml, 4 mkg/ml), simulating the therapeutic range, and then incubated for 45 minutes at 37° C.” left out
# [1] = test system: Thrombin receptor (PAR-1); assay: Flow cytometry: intact (SPAN12) and cleaved (WEDE15) PAR-1 thrombin receptors on platelets; type: cell-based, human; settings: for Thrombin receptor (PAR-1) WEDE 15 (epitope of cleaved receptors) / Thrombin receptor (PAR-1) SPAN 12 (epitope of intact receptor): non-responder blood, 45 min; for Thrombin receptor (PAR-1) WEDE 15 (epitope of cleaved receptors): baseline 20.2 ± 3.4; for Thrombin receptor (PAR-1) SPAN 12 (epitope of intact receptor): baseline 31.6 ± 6.4
# Experimental: as §1, §2, §3, §4
# [2] = test system: Annexin V binding sites on platelets; assay: Flow cytometry: Annexin V binding on platelets; type: cell-based, human; settings: for Annexin V binding (PS % positive cells): non-responder blood, 45 min, baseline 9.5 ± 2.7
# Experimental: as §1, §2, §3, §4
# thrombin generation = assay: Thrombin generation markers in autologous plasma by ELISA; type: cell-based, human; settings: for Prothrombin fragment F1 + 2 / Thrombin-antithrombin III Complex / Thrombin generation markers D-dimer: non-responder blood, 45 min; for Prothrombin fragment F1 + 2: baseline 1.9 ± 1.0; for Thrombin-antithrombin III Complex: baseline 3.2 ± 1.1; for Thrombin generation markers D-dimer: baseline 325.0 ± 84.6
# Experimental: as §1, §2, §3, §4
# [3] = ESPS-2; J Neurol Sci. 1996; Neurology 1998; cited from earlier work
# [4] = DIP in vitro, 2 and 4 mkg/ml, blood of AR patients, listed as DIP
# [5] = addition of DIP in vitro in AR patients
# [6] = Dipyridamole 4 μg/ml, p = 0.022
compound,measurement,setting,value
"CC(=O)Oc1ccccc1C(=O)O [ASA, acetylsalicylic acid]",patients treated with ASA who did not show appropriate reduction in platelet aggregability,platelet aggregability,up to 30%
"OCCN(CCO)c1nc(N2CCCCC2)c2nc(N(CCO)CCO)nc(N3CCCCC3)c2n1 [Dipyridamole, 2,6-bis(diethanolamino)-4,8-dipiperidino-pyrimido[5,4-d]pyrimidine]",Platelet aggregation / aggregometry (in words),platelets; [4],not affected; also recorded: not changed
same,Platelet aggregation 5 μM ADP,"platelets; non-responder blood (n = 20) incubated 45 min at 37° C. with Dipyridamole 2 μg/ml, p = 0.13",63.6 ± 6.8%
same,Platelet aggregation 5 μM ADP,"platelets; non-responder blood (n = 20) incubated 45 min at 37° C. with Dipyridamole 4 μg/ml, p = 0.66",63.8 ± 6.8%
same,Platelet aggregation Collagen 1 μM,"platelets; Dipyridamole 2 μg/ml, p = 0.13",64.2 ± 7.4%
same,Platelet aggregation Arachidonic Acid 0.75 μM,"platelets; Dipyridamole 2 μg/ml, p = 0.41",71.4 ± 7.3
same,Platelet aggregation Collagen 1 μM,"platelets; Dipyridamole 4 μg/ml, p = 0.38",64.2 ± 6.9%
same,Platelet aggregation Arachidonic Acid 0.75 μM,"platelets; Dipyridamole 4 μg/ml, p = 0.12",70.6 ± 6.2
same,GP IIb/IIIa (in words),GP IIb/IIIa; [5],sustained blockade
same,"Flow-cytometry CD41a (GP IIb), MFI","GP IIb/IIIa; Dipyridamole 2 μg/ml, p = 0.12",417.6 ± 49.5 MFI
same,"Flow-cytometry CD41a (GP IIb), MFI","GP IIb/IIIa; Dipyridamole 4 μg/ml, p = 0.22",419.4 ± 49.1 MFI
same,"Flow-cytometry CD62p (P-selectin), % +","P-selectin; Dipyridamole 2 μg/ml, p = 0.308",9.4 ± 2.8 % +
same,"Flow-cytometry CD62p (P-selectin), % +","P-selectin; Dipyridamole 4 μg/ml, p = 0.21",9.4 ± 2.4 % +
same,PAR-1 receptors (in words),[1]; [5],sustained blockade
same,expression of intact PAR-1 receptor (in words),[1]; after incubation with 2 mkg/ml and 4 mkg/ml of dipyridamole (p=0.02 and p=0.024),diminished expression
same,Thrombin receptor (PAR-1) WEDE 15 (epitope of cleaved receptors),"[1]; Dipyridamole 2 μg/ml, p = 0.0507",18.4 ± 3.1
same,Thrombin receptor (PAR-1) SPAN 12 (epitope of intact receptor),"[1]; Dipyridamole 2 μg/ml, p = 0.02",27.8 ± 5.4
same,Thrombin receptor (PAR-1) WEDE 15 (epitope of cleaved receptors),[1]; [6],18.1 ± 3.0
same,Thrombin receptor (PAR-1) SPAN 12 (epitope of intact receptor),"[1]; Dipyridamole 4 μg/ml, p = 0.024",29.1 ± 5.5
same,activity of the cleaved PAR-1 (in words),"[1]; only after incubation with 4 mkg/ml, statistically significant (p=0.022)",decreased activity
same,annexin V binding (in words),"[2]; after incubation with 2 mkg/ml and 4 mkg/ml of dipyridamole (p=0.031 and p=0.02), listed as DIP",diminished; also recorded: sustained blockade
same,Annexin V binding sites compared to pre-incubation,"[2]; incubation of cells with DIP, patients with anti-platelet therapy resistance, e.g. ASA or clopidogrel resistance",significant reduction
same,Annexin V binding (PS % positive cells),"[2]; Dipyridamole 2 μg/ml, p = 0.031",7.9 ± 2.3 % positive cells
same,Annexin V binding (PS % positive cells),[2]; [6],7.7 ± 1.9 % positive cells
same,TG markers / TR markers (in words),thrombin generation; [4],not affected; also recorded: not changed
same,Prothrombin fragment F1 + 2,"thrombin generation; Dipyridamole 2 μg/ml, p = 0.17",1.8 ± 1.0 nM/L
same,Thrombin-antithrombin III Complex,"thrombin generation; Dipyridamole 2 μg/ml, p = 0.49",3.2 ± 1.2 µg/L
same,Thrombin generation markers D-dimer,"thrombin generation; Dipyridamole 2 μg/ml, p = 0.55",316.1 ± 90.1 µg/L
same,Prothrombin fragment F1 + 2,"thrombin generation; Dipyridamole 4 μg/ml, p = 0.41",1.8 ± 0.9 nM/L
same,Thrombin-antithrombin III Complex,"thrombin generation; Dipyridamole 4 μg/ml, p = 0.24",3.1 ± 1.2 µg/L
same,Thrombin generation markers D-dimer,"thrombin generation; Dipyridamole 4 μg/ml, p = 0.48",310.8 ± 83.8 µg/L
same,reduction of stroke risk,[3],as effective as low-dose aspirin
